For 27 compounds, IC50 results are on record in patent publication US11084829B2, “Ubiquitin-specific-processing protease 7 (USP7) modulators and uses thereof” (RAPT THERAPEUTICS, INC., priority 2018, dated 2021).

The target in this assay is USP7 (Homo sapiens, UniProt Q93009). In words: USP7 inhibitory potency (IC50). Format: biochemical. The protocol:
Activity for compounds described herein is provided in Table 2, wherein potency levels are provided as follows: (Potency: USP7 IC50: A<0.01 μM; B=0.01-0.1 μM; C=>0.1 μM.

pIC50: −log10 of the molar value. Where only a bound is given, the exact number is not on record here.

Chain of USP7 (Q93009 whole entry): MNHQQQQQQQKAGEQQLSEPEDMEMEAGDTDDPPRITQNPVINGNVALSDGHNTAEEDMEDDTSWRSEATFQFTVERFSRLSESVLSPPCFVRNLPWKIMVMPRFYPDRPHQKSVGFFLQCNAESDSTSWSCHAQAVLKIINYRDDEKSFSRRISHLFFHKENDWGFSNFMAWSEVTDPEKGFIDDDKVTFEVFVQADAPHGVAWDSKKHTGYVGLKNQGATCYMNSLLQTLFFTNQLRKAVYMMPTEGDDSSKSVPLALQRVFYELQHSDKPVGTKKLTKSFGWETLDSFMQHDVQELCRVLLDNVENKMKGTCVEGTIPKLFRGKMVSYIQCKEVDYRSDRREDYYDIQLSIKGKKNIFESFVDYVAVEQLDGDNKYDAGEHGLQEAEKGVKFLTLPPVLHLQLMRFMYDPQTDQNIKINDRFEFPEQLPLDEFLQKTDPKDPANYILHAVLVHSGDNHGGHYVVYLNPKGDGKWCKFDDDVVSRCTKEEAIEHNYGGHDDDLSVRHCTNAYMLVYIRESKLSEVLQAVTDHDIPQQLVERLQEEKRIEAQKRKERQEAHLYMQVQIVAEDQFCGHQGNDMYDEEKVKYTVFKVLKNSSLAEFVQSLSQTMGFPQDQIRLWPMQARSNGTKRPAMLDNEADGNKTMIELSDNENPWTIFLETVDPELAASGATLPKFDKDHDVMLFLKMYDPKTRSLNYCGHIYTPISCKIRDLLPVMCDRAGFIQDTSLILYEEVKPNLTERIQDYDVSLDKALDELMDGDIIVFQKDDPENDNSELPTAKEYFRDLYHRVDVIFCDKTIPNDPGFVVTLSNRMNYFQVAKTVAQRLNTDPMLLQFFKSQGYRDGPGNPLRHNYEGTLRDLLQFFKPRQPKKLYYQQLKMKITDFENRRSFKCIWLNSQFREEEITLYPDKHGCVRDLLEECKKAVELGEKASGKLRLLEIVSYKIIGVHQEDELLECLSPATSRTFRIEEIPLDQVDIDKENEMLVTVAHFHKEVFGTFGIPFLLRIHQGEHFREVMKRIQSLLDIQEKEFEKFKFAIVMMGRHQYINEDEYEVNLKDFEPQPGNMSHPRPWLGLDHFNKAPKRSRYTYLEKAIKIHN

Broadly, the pIC50 is the negative decadic logarithm of the IC50, by convention in mol/L. A lower pIC50 goes with a large IC50. In the case of `Cc1cc(Cl)cc(-c2ncnc3cc(CN4C(=O)C5CC5C4=O)sc23)c1CC1CNCC2(CCC2)O1` (stereo not drawn) [Example 207, 3-((4-(2-((5-oxa-8-azaspiro[3.5]nonan-6-yl)methyl)-5-chloro-3-methylphenyl)thieno[3,2-d]pyrimidin-6-yl)methyl)-3-azabicyclo[3.1.0]hexane-2,4-dione], the pIC50 was above 8.00.

In the case of `Cc1cc(Cl)cc(-c2ncnc3cc(CN4C(=O)C5CC5C4=O)sc23)c1CC1CNCC2(CC2)O1` (stereo not drawn) [Example 208, 3-((4-(2-((4-oxa-7-azaspiro[2.5]octan-5-yl)methyl)-5-chloro-3-methylphenyl)thieno[3,2-d]pyrimidin-6-yl)methyl)-3-azabicyclo[3.1.0]hexane-2,4-dione], the negative logarithm of the IC50 (pIC50) was above 8.00. Regarding `Cc1cc(Cl)cc(-c2ccnc3cc(CN4C(=O)CCC4=O)sc23)c1CN1CCCNCC1` [Example 17, 1-((7-(2-((1,4-diazepan-1-yl)methyl)-5-chloro-3-methylphenyl)thieno[3,2-b]pyridin-2-yl)methyl)pyrrolidine-2,5-dione], the pIC50 is above 8.00. With `Cc1cc(Cl)cc(-c2ncnc3cc(Cn4c(=O)ccn(C)c4=O)sc23)c1C[C@@H]1CNCC(C)(C)O1` [Example 218, (R)-3-((4-(5-chloro-2-((6,6-dimethylmorpholin-2-yl)methyl)-3-methylphenyl)thieno[3,2-d]pyrimidin-6-yl)methyl)-1-methylpyrimidine-2,4(1H,3H)-dione], the pIC50 is above 8.00. The value for `Cc1cc(Cl)cc(-c2ncnc3cc(CN4C(=O)CCN(CCF)C4=O)sc23)c1CN1[C@@H](C)CNC[C@@H]1C` [Example 258, 3-((4-(5-chloro-2-(((2S,6S)-2,6-dimethylpiperazin-1-yl)methyl)-3-methylphenyl)thieno[3,2-d]pyrimidin-6-yl)methyl)-1-(2-fluoroethyl)dihydropyrimidine-2,4(1H,3H)-dione] was above 8.00; that for `CN1CC(=O)N(Cc2cc3ncnc(-c4cc(Cl)cc(Cl)c4CC4CNCC(C)(C)O4)c3s2)C1=O` (stereo not drawn) [Example 253, 3-((4-(3,5-dichloro-2-((6,6-dimethylmorpholin-2-yl)methyl)phenyl)thieno[3,2-d]pyrimidin-6-yl)methyl)-1-methylimidazolidine-2,4-dione] was above 8.00. With `Cc1cc(Cl)cc(-c2ncnc3cc(CN4C(=O)CCCC4=O)sc23)c1CN1C[C@@H](C)NC[C@@H]1C` [Example 69, 1-((4-(5-chloro-2-(((2S,5R)-2,5-dimethylpiperazin-1-yl)methyl)-3-methylphenyl)thieno[3,2-d]pyrimidin-6-yl)methyl)piperidine-2,6-dione] the figure was above 8.00; with `Cc1cc(Cl)cc(-c2ncnc3cc(CN4C(=O)N(C)C(C)(C)C4=O)sc23)c1CC1CNCCO1` (stereo not drawn) [Example 200, 3-((4-(5-chloro-3-methyl-2-(morpholin-2-ylmethyl)phenyl)thieno[3,2-d]pyrimidin-6-yl)methyl)-1,5,5-trimethylimidazolidine-2,4-dione], above 8.00. `Cc1cc(Cl)cc(-c2ccnc3cc(CN4C(=O)CCC4=O)sc23)c1CN1CC2CC1CN2` (stereo not drawn) [Example 15, 1-((7-(2-((2,5-diazabicyclo[2.2.1]heptan-2-yl)methyl)-5-chloro-3-methylphenyl)thieno[3,2-b]pyridin-2-yl)methyl)pyrrolidine-2,5-dione]: the pIC50 is above 8.00.

`Cc1cc(Cl)cc(-c2ccnc3cc(CN4C(=O)C5CC5C4=O)sc23)c1CC1CNCCS1` (stereo not drawn) [Example 113, 3-((7-(5-chloro-3-methyl-2-(thiomorpholin-2-ylmethyl)phenyl)thieno[3,2-b]pyridin-2-yl)methyl)-3-azabicyclo[3.1.0]hexane-2,4-dione] had a pIC50 above 8.00. With `Cc1cc(C(F)(F)F)cc(-c2ncnc3cc(CN4C(=O)C5C(C4=O)C5(C)C)sc23)c1CN1CCNC[C@@H]1C` (stereo partly drawn) [Example 59, 6,6-dimethyl-3-((4-(3-methyl-2-(((S)-2-methylpiperazin-1-yl)methyl)-5-(trifluoromethyl)phenyl)thieno[3,2-d]pyrimidin-6-yl)methyl)-3-azabicyclo[3.1.0]hexane-2,4-dione] the figure was 7.00 to 8.00.

`Cc1cc(Cl)cc(-c2ccnc3cc(CN4C(=O)CCC4=O)sc23)c1CN1CCNCC1` [Example 5, 1-((7-(5-chloro-3-methyl-2-(piperazin-1-ylmethyl)phenyl)thieno[3,2-b]pyridin-2-yl)methyl)pyrrolidine-2,5-dione]: the pIC50 was 7.00 to 8.00. `Cc1cc(Cl)cc(-c2ncnc3cc(CN4C(=O)C5CCCN5C4=O)sc23)c1CC1CNCCO1` (stereo not drawn) [Example 187, 2-((4-(5-chloro-3-methyl-2-(morpholin-2-ylmethyl)phenyl)thieno[3,2-d]pyrimidin-6-yl)methyl)tetrahydro-1H-pyrrolo[1,2-c]imidazole-1,3(2H)-dione] showed a pIC50 above 8.00. Consider `Cc1cc(Cl)cc(-c2ccnc3cc(CN4C(=O)C5C(C4=O)C5(C)C)sc23)c1CN1C[C@@H](C)NC[C@@H]1C` (stereo partly drawn) [Example 39, 3-((7-(5-chloro-2-(((2S,5R)-2,5-dimethylpiperazin-1-yl)methyl)-3-methylphenyl)thieno[3,2-b]pyridin-2-yl)methyl)-6,6-dimethyl-3-azabicyclo[3.1.0]hexane-2,4-dione], for which the pIC50 was above 8.00. `Cc1cc(Cl)cc(-c2ncnc3cc(CN4CCCC4=O)sc23)c1C[C@@H]1CNCC(C)(C)O1` [Example 235, (R)-1-((4-(5-chloro-2-((6,6-dimethylmorpholin-2-yl)methyl)-3-methylphenyl)thieno[3,2-d]pyrimidin-6-yl)methyl)pyrrolidin-2-one] showed a pIC50 of 7.00 to 8.00. With `Cc1cc(Cl)cc(-c2ncnc3cc(CN4CCCC4=O)sc23)c1CN1C[C@@H](C)NC[C@@H]1C` [Example 81, 1-((4-(5-chloro-2-(((2S,5R)-2,5-dimethylpiperazin-1-yl)methyl)-3-methylphenyl)thieno[3,2-d]pyrimidin-6-yl)methyl)pyrrolidin-2-one] the figure was below 7.00; with `Cc1cc(Cl)cc(-c2ncnc3cc(Cn4cccc4C#N)sc23)c1C[C@@H]1CNCC(C)(C)O1` [Example 239, (R)-1-((4-(5-chloro-2-((6,6-dimethylmorpholin-2-yl)methyl)-3-methylphenyl)thieno[3,2-d]pyrimidin-6-yl)methyl)-1H-pyrrole-2-carbonitrile], below 7.00; with `C[C@H]1CNC[C@H](C)N1Cc1c(Cl)cc(Cl)cc1-c1ncnc2cc(CN3C(=O)C4CC4C3=O)sc12` (stereo partly drawn) [Example 85, 3-((4-(3,5-dichloro-2-(((2S,6S)-2,6-dimethylpiperazin-1-yl)methyl)phenyl)thieno[3,2-d]pyrimidin-6-yl)methyl)-3-azabicyclo[3.1.0]hexane-2,4-dione], above 8.00. As for `Cc1cc(Cl)cc(-c2ccnc3cc([C@H](C)N4C(=O)C5C(C4=O)C5(C)C)sc23)c1C[C@@H]1CNCCO1` (stereo partly drawn) [Example 133, 3-((S)-1-(7-(5-chloro-3-methyl-2-(((R)-morpholin-2-yl)methyl)phenyl)thieno[3,2-b]pyridin-2-yl)ethyl)-6,6-dimethyl-3-azabicyclo[3.1.0]hexane-2,4-dione], the pIC50 is above 8.00.

On to `Cc1cc(Cl)cc(-c2ccnc3cc(CN4C(=O)C5CC5C4=O)sc23)c1CC1CNCC2(CCC2)O1` (stereo not drawn) [Example 131, 3-((7-(2-((5-oxa-8-azaspiro[3.5]nonan-6-yl)methyl)-5-chloro-3-methylphenyl)thieno[3,2-b]pyridin-2-yl)methyl)-3-azabicyclo[3.1.0]hexane-2,4-dione], for which the pIC50 is above 8.00. With `Cc1cc(Cl)cc(-c2ncnc3cc(CN4C(=O)C5CC5C4=O)sc23)c1CC1(C)CNCCO1` (stereo not drawn) [Example 156, 3-((4-(5-chloro-3-methyl-2-((2-methylmorpholin-2-yl)methyl)phenyl)thieno[3,2-d]pyrimidin-6-yl)methyl)-3-azabicyclo[3.1.0]hexane-2,4-dione] the figure was 7.00 to 8.00. The value for `Cc1cc(Cl)cc(-c2ncnc3cc(CN4C(=O)CN(CCO)C4=O)sc23)c1C[C@@H]1CNCC(C)(C)O1` [Example 276, (R)-3-((4-(5-chloro-2-((6,6-dimethylmorpholin-2-yl)methyl)-3-methylphenyl)thieno[3,2-d]pyrimidin-6-yl)methyl)-1-(2-hydroxyethyl)imidazolidine-2,4-dione] was above 8.00.

`Cc1cc(Cl)cc(-c2ncnc3cc(CN4C(=O)[C@@H]5CCCN5C4=O)sc23)c1CN1[C@@H](C)CNC[C@@H]1C` [Example 88, (S)-2-((4-(5-chloro-2-(((2S,6S)-2,6-dimethylpiperazin-1-yl)methyl)-3-methylphenyl)thieno[3,2-d]pyrimidin-6-yl)methyl)tetrahydro-1H-pyrrolo[1,2-c]imidazole-1,3(2H)-dione] showed a pIC50 above 8.00. `Cc1cc(Cl)cc(-c2ncnc3cc(CN4C(=O)NC(C(C)C)C4=O)sc23)c1C[C@@H]1CNCCO1` (stereo partly drawn) [Example 246, 3-((4-(5-chloro-3-methyl-2-(((R)-morpholin-2-yl)methyl)phenyl)thieno[3,2-d]pyrimidin-6-yl)methyl)-5-isopropylimidazolidine-2,4-dione] gave a pIC50 above 8.00.

As for `CCN1CC(=O)N(Cc2cc3ncnc(-c4cc(Cl)cc(C)c4CC4CNCCO4)c3s2)C1=O` (stereo not drawn) [Example 188, 3-((4-(5-chloro-3-methyl-2-(morpholin-2-ylmethyl)phenyl)thieno[3,2-d]pyrimidin-6-yl)methyl)-1-ethylimidazolidine-2,4-dione], the pIC50 was above 8.00.

As for `Cc1cc(Cl)cc(-c2ccnc3cc(CN4C(=O)C5CC5C4=O)sc23)c1C[C@H]1O[C@H](C)CNC1=O` (stereo partly drawn) [Example 105, 3-((7-(5-chloro-3-methyl-2-(((2R,6R)-6-methyl-3-oxomorpholin-2-yl)methyl)phenyl)thieno[3,2-b]pyridin-2-yl)methyl)-3-azabicyclo[3.1.0]hexane-2,4-dione], the pIC50 was below 7.00. With `Cc1cc(Cl)cc(-c2ncnc3cc(CN4C(=O)COC4=O)sc23)c1C[C@@H]1CNCC(C)(C)O1` [Example 234, (R)-3-((4-(5-chloro-2-((6,6-dimethylmorpholin-2-yl)methyl)-3-methylphenyl)thieno[3,2-d]pyrimidin-6-yl)methyl)oxazolidine-2,4-dione] the figure was above 8.00.
